Consider one compound from article PMC9298352, “Design, Synthesis and Structural Analysis of Glucocerebrosidase Imaging Agents” (Chemistry (Weinheim an Der Bergstrasse, Germany), 2021).

The target of assay [1] is T1, GBA in mouse brain lysate (Mus musculus, UniProt P17439).
T1 construct: from tissue; host or cells: mouse brain
T1 sequence (P17439 20-515): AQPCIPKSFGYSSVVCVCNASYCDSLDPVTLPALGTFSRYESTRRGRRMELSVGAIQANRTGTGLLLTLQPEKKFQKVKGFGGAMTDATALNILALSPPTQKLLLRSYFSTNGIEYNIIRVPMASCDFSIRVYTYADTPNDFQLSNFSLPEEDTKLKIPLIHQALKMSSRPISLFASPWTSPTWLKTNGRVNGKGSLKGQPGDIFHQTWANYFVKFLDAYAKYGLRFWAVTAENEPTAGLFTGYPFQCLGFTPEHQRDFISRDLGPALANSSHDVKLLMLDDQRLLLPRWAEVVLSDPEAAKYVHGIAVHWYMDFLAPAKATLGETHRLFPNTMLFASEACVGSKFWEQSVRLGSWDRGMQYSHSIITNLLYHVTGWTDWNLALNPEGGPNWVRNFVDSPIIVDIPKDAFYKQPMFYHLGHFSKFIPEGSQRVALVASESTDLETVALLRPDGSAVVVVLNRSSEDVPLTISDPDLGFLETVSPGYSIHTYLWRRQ
As to the kind of experiment: Fluorescent labeling of mouse brain lysate, GBA. It counts as biochemical. To be noted: 37 °C. The method, then:
We next investigated their labeling efficiency and selectivity toward GBA in mouse brain lysate at pH 5.2 (containing 0.2 % taurocholate and 0.1 % Triton‐100) and pH 5.8 as respective optimal conditions for GBA and GBA2 activities (Figure 7). […] Importantly, no labelling of GBA2 was observed up to 1000 nM, showing good GBA selectivity.
Labeling by broad‐spectrum β‐glucosidase ABP 8 is shown for comparison (100 nM, pH 5.2 or pH 5.8, 30 min, 37 °C).
Fluorescent labeling with broad‐spectrum ABP 8 was performed at 100 nM ABP concentration at 37 °C for 30 min at pH 5.2 (with 0.1 % (v/v) Triton X‐100 and 0.2 % (w/v) sodium taurocholate) or pH 5.8 respectively. Samples were then denatured with 4 μL Laemmli (5x) sample buffer and heated at 98 °C for 5 minutes. Proteins were resolved by electrophoresis in 10 % SDS‐PAGE gels, running at a constant of 90 V for 30 minutes followed by 120 V for approximately 60 minutes. Wet slab gels were scanned on fluorescence using a Typhoon FLA9500 Imager (GE Healthcare) using λEX 635 nm; λEM >665 nm and images were processed using ImageLab 5.2.1 (BioRad).

Assay [2] addresses T2, rhGBA (Homo sapiens, UniProt P04062).
T2 construct: made in house; host or cells: insect-baculovirus expression vector system (BEVS)
T2 sequence (P04062 40-536): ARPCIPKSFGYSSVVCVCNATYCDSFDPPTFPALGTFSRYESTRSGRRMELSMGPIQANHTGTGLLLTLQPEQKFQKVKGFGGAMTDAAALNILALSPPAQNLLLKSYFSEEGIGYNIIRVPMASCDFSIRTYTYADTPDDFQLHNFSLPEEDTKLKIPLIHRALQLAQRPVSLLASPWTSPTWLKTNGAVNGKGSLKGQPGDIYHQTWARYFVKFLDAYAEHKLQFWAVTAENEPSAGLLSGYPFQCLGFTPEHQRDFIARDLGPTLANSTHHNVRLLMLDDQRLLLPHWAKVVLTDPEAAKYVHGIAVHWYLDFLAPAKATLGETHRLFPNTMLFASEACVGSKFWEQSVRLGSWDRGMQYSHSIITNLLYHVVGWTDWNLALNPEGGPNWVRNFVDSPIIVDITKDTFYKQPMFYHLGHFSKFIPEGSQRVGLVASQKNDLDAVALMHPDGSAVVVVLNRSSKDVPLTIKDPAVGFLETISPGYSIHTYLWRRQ
As to the kind of experiment: rhGBA titration with constant ABP 6 and ABP 9 (gel-based labelling). It counts as biochemical. To be noted: ABP 150 nM, rhGBA 500–0.01 nM, 37 °C, 30 mins. The method, then: Maximum‐likelihood/σA weighted (2Fo–Fc) electron density map contoured to 1.0 σ (a=1.31 e^−/Å^3). […] Fluorescently labelled rhGBA visualized by Cy5 fluorescent readout. D=denatured protein sample.
rhGBA produced in BEVS[58] was prepared at 500, 250, 100, 50, 10, 1, 0.1 and 0.01 nM in 150 mM McIlvaine buffer pH 5.2 (supplemented with 0.1 % (v/v) Triton X‐100 and 0.2 % (w/v) sodium taurocholate). […] The samples were denatured with Laemmli (x3) sample buffer by heating at 95 °C for 5 minutes and resolved by electrophoresis in 10 % SDS‐PAGE gels, running at 200 V for ∼50 minutes. Wet slab gels were scanned on fluorescence using an Amersham Typhoon 5 Imager (GE Healthcare) with λEX 635 nm; λEM >665 nm.

As to `CCCCCCCCN1[C@@H]2[C@H](Cn3cc(CNC(=O)CCCCC[N+]4=C(/C=C/C=C/C=C5/N(C)c6ccccc6C5(C)C)C(C)(C)c5ccccc54)nn3)[C@@H](O)[C@H](O)[C@@H](O)[C@@H]21` (stereo partly drawn) [ABP 6], the “ABP concentration with significant labeling of GBA” value in assay [1] (pH 5.2 with 0.2 % taurocholate and 0.1 % Triton, 30 min) is reported as 10 nM; in assay [1] (pH 5.8, 30 min), 1000 nM. In addition, the “lowest rhGBA concentration labelled” value in assay [2] is 1 nM.
